Source: PMC10862543, “Naphthalene Diimide–Tetraazacycloalkane Conjugates Are G-Quadruplex-Based HIV-1 Inhibitors with a Dual Mode of Action” (ACS Infectious Diseases, 2024)
Counter-ions that a name gives are not always drawn.

Assays:
HIV-1 X4 strain (NL4–3) = test: Time of addition (TOA) assay, X4 strain; type: cell-based
Method: This assay indicates how long the addition of a compound can be postponed before it loses its antiviral activity: comparing the test compounds with reference drugs, whose mechanism is well characterized in the time frame of virus replication, it is possible to determine which viral steps are affected by the test compounds.[56]
Virus production was monitored at 25 h post infection, i.e., at the end of a single round of HIV-1 replication, by exploiting the LTR-driven luciferase reporter system.
25 h post infection HIV-1 production was assessed following the LTR-luciferase signal using the britelite plus Reporter Gene Assay System. The activity of the test compounds was compared with that of untreated infected cells and reference drugs (DS stands for dextran sulfate and NEV stands for nevirapine).
TZM-bl cells (1 × 10^4 cells/well) were seeded in 96-well plates and grown overnight to permit adherence prior to treatment and viral infection. Cells were next infected with HIV-1 NL4–3 or BaL strains (MOI 0.5 and 0.3, respectively) and incubated at 37 °C. […] Following these criteria, we used the highest possible concentrations with the lowest cytotoxicity. After 25 h, cells were washed with PBS 1× and HIV-1 production was assessed following the LTR-luciferase signal using the britelite plus Reporter Gene Assay System (PerkinElmer, Waltman, MA, USA) according to the manufacturer’s protocol.

dsDNA = test: FRET melting assay, dsDNA control; type: binding; details: dsDNA 0.25 μM, compound 0.5 μM, 100 mM KCl
Method: (§1) FRET assay was performed with FAM (6-carboxyfluorescein) 5′-end- and Tamra (6-carboxytetramethylrhodamine) 3′-end-labeled oligonucleotides (Table S1). Fluorescence melting curves were determined with a LightCycler II (Roche) real-time PCR machine, using a total reaction volume of 20 μL, with 0.25 μM tagged oligonucleotide in a buffer containing 10 mM lithium cacodylate pH 7.4 with 100 mM KCl, in the presence or absence of 0.5 μM NDI–tetraazacycloalkane conjugate. After a first equilibration step at 30 °C during 2 min, a stepwise increase of 1 °C every minute for 65 cycles to reach 95 °C was performed and measurements were made after each cycle with excitation at 470 nm and detection at 530 nm. Final analysis of the data was carried out using Excel and Sigma Plot software. Oligonucleotides melting was monitored by observing emission of FAM, which was normalized between 0 and 1: Tm was defined as the temperature at which the normalized emission is 0.5. Tm values were mean of 2–3 experiments and ΔTm was calculated as the difference Tm in the presence and absence of the compound.

HIV-1 X4 strain (NL4-3) = test: microbe, parasite or virus in culture; type: cell-based; details: for IC50: Human immunodeficiency virus 1, NL43, TZM-bl, X4 strain, MOI 0.5
Method: (§2) We next tested the antiviral activity of the NDI–tetraazacycloalkane conjugates in TZM-bl cells. Cells were infected with HIV-1 NL4–3 or BaL, two strains with different cell tropism due to the different coreceptors that are bound by the virus to get access into the cell: HIV-1 NL4–3 exploits the CXCR4 coreceptor (X4 strain), while HIV-1 BaL exploits the CCR5 coreceptor (R5 strain). Compounds were administered at the time of infection or 2 h post infection, and the antiviral activity was evaluated 24 and 48 h post infection. Cytotoxicity was tested in parallel on uninfected cells to assess compound cytotoxicity.
(§3) Cytotoxicity of tested compounds was performed in parallel to antiviral and reporter assays by MTT. […] The selectivity index (SI) is the relative effectiveness of the tested compound in inhibiting viral replication compared to inducing cell death (CC50 value/IC50 value). […] IC50 and CC50 values were calculated by using a nonlinear regression model.
(§4) HIV-1 infectivity was measured using the TZM-bl reporter cell line (obtained through the NIH AIDS Reagent Program, Division of AIDS, NIAID, NIH: TZM-bl cells (catalog no. 8129) from Dr. John C. Kappes, and Dr. Xiaoyun Wu). TZM-bl is a HeLa cell line stably expressing large amounts of CD4 and CCR5, constitutively expressing CXCR4 and containing integrated copies of the luciferase and β-galactosidase genes under the control of the HIV-1 promoter. TZM-bl were grown in DMEM supplemented with 10% FBS. Cells (1 × 10^4 cells/well) were seeded in 96-well plates and grown overnight to permit adherence prior to treatment and viral infection. Cells were next infected with HIV-1 NL4–3 strain or BaL strain at a MOI of respectively 0.5 and 0.3 for 1 h at 37 °C, treated with serial dilutions of tested compounds, and incubated at 37 °C. MOI values had been optimized in previous in-house experiments in order to obtain a well detectable virus release but avoid a virus-induced cytopathic effect. Compounds were reconstituted in DMSO, and dilutions were made in cell medium to maintain the same percentage of DMSO in all dilutions. Untreated cells were treated with the same solvent. After 24 or 48 h, cells were washed with PBS 1× and HIV-1 production was assessed following the LTR-luciferase signal using the britelite plus Reporter Gene Assay System (PerkinElmer, Waltman, MA, USA) according to the manufacturer’s protocol.

HIV-1 R5 strain (BaL) = test: microbe, parasite or virus in culture; type: cell-based; details: TZM-bl; for IC50: Human immunodeficiency virus 1, BAL, R5 strain, MOI 0.3
Method: as §2, §3, §4

Tel22 = test: CD melting, telomeric G4 control; type: binding; details: Tel22 4 μM, compound 8 μM, 100 mM KCl
Method: (§5) All oligonucleotides used in this study were from Sigma-Aldrich (Milan, Italy) (Table S2). For CD analysis, oligonucleotides were diluted to a final concentration of 4 μM in lithium cacodylate buffer (10 mM, pH 7.4) and KCl 100 mM. After the annealing step (95 °C for 5 min), DNA samples were gradually cooled to room temperature and compounds added from stock at final concentration of 8 μM. […] The reported spectrum of each sample represents the average of 2 scans and is baseline-corrected for signal contributions due to the buffer. Observed ellipticities were converted to mean residue ellipticity (θ) = deg × cm^2 × dmol^–1 (mol ellip). For the determination of Tm, spectra were recorded over a temperature range of 20–90 °C, with a temperature increase of 5 °C/min. Tm values were calculated according to the van’t Hoff equation, applied for a two-state transition from a folded to unfolded state, assuming that the heat capacity of the folded and unfolded states are equal.

LTR-IV [1] = test: FRET melting assay, LTR-IV G4; type: binding, HIV-1; details: LTR-IV 0.25 μM, compound 0.5 μM, 100 mM KCl
Method: as §1

LTR-III [2] = test: FRET melting assay, LTR-III G4; type: binding, HIV-1; details: LTR-III 0.25 μM, compound 0.5 μM, 100 mM KCl
Method: as §1

LTR-IV [3] = test: CD melting, LTR-IV G4; type: binding, HIV-1; details: LTR-IV 4 μM, compound 8 μM, 100 mM KCl
Method: as §5

F21T = type: binding; details: F21T 0.25 μM, compound 0.5 μM, 100 mM KCl
Method: as §1

TZM-bl cells = test: MTT cytotoxicity assay on uninfected cells; type: cell-based; details: for CC50: uninfected TZM-bl
Method: (§6) We used TZM-bl cells that are HeLa cells stably expressing large amounts of CD4, CXCR4, and CCR5, thus being highly susceptible to HIV-infection, with integrated luciferase and beta-galactosidase genes under the control of the HIV-1 promoter. We first tested NDI–tetraazacycloalkane conjugates’ cytotoxicity on TZM-bl cells by treating them with increasing amounts of compounds (0.097–25 μM) for 24 and 48 h.
(§7) Cytotoxicity of tested compounds was performed in parallel to antiviral and reporter assays by MTT. […] The selectivity index (SI) is the relative effectiveness of the tested compound in inhibiting viral replication compared to inducing cell death (CC50 value/IC50 value). […]. IC50 and CC50 values were calculated by using a nonlinear regression model.

[4] = MTT cytotoxicity assay on uninfected cells; type: cell-based; details: human, uninfected TZM-bl
Method: as §6, §7

LTR-III [5] = test: CD melting, LTR-III G4; type: binding, HIV-1; details: LTR-III 4 μM, compound 8 μM, 100 mM KCl
Method: as §5

[6] = stability constant; cited from earlier work
T-tropic HIV = details: cited from earlier work
[7] = administration 0 hpi, evaluation 24 hpi
[8] = administration 2 hpi, evaluation 24 hpi
[9] = administration 2 hpi, evaluation 48 hpi

Cc1ccnc2c1NC(=O)c1cccnc1N2C1CC1 [nevirapine]
time post infection up to which the control drug is active (HIV-1 X4 strain (NL4–3)): 3 to 4 h

CN(C)CCCNc1cc2c3c(c(NCCCCCC(=O)OCC4CNCCCNCCNCCN4)cc4c3c1C(=O)N(CCCN(C)C)C4=O)C(=O)N(CCCN(C)C)C2=O (stereo not shown) [compound 5]
Tm K^+ 100 mM + compound (FRET) (dsDNA): 65.0 ± 0.2 °C | ΔTm (FRET) (dsDNA): 0.8 °C | IC50 (HIV-1 X4 strain (NL4-3); [7]): 17.8 ± 0.94 µM | IC50 (HIV-1 X4 strain (NL4-3); administration 0 hpi, evaluation 48 hpi): 1.86 ± 0.49 µM | IC50 (HIV-1 X4 strain (NL4-3); [8]): 12.1 ± 1.02 µM | IC50 (HIV-1 X4 strain (NL4-3); [9]): 1.82 ± 0.65 µM | IC50 (HIV-1 R5 strain (BaL); [7]): > 25 µM | IC50 (HIV-1 R5 strain (BaL); [8]): > 25 µM | IC50 (HIV-1 R5 strain (BaL); [9]): 16.6 ± 1.33 µM | Tm K^+ 100 mM + compound (CD) (Tel22): 60.9 ± 0.3 °C | ΔTm (CD) (Tel22): –5.9 °C | Tm K^+ 100 mM + compound (FRET) (LTR-IV [1]): 73.9 ± 0.6 °C | ΔTm (FRET) (LTR-IV [1]): 15.2 °C | Tm K^+ 100 mM + compound (FRET) (LTR-III [2]): 77.7 ± 0.1 °C | ΔTm (FRET) (LTR-III [2]): 12.5 °C | Tm K^+ 100 mM + compound (CD) (LTR-IV [3]): 71.6 ± 0.4 °C | ΔTm (CD) (LTR-IV [3]): 21.2 °C | Tm K^+ 100 mM + compound (FRET) (F21T): 66.6 ± 0.1 °C | ΔTm (FRET) (F21T): 2.2 °C | CC50 (TZM-bl cells; parallel to R5, administration 0 hpi, evaluation 24 hpi): > 25 µM | CC50 (TZM-bl cells; parallel to R5, administration 0 hpi, evaluation 48 hpi): > 25 µM | CC50 (TZM-bl cells; parallel to R5, administration 2 hpi, evaluation 48 hpi): > 25 µM | CC50 (TZM-bl cells; parallel to X4, administration 0 hpi, evaluation 24 hpi): > 25 µM | CC50 (TZM-bl cells; parallel to X4, administration 2 hpi, evaluation 24 hpi): > 25 µM | CC50 (TZM-bl cells; parallel to X4, administration 2 hpi, evaluation 48 hpi): > 25 µM | CC50 at 24 h ([4]; parallel to R5, administration 2 hpi, evaluation 24 hpi): > 25 µM | CC50 at 48 h ([4]; parallel to X4, administration 0 hpi, evaluation 48 hpi): > 25 µM | Tm K^+ 100 mM + compound (CD) (LTR-III [5]): 78.6 ± 0.5 °C | ΔTm (CD) (LTR-III [5]): 10.4 °C

dextran sulfate
time post infection up to which the control drug is active (HIV-1 X4 strain (NL4–3)): active at the time of infection only

C1CNCCNCCNCCN1 [Cyclen]
log Ka toward Cu^2+ [6]: 23.29

CN(C)CCCNc1cc2c3c(c(NCCCCCC(=O)O)cc4c3c1C(=O)N(CCCN(C)C)C4=O)C(=O)N(CCCN(C)C)C2=O [parental NDI]
cytotoxicity (in words) (TZM-bl cells; TZM-bl, 24 h, Figure S11): highly cytotoxic

C1CNCCNCCNCCNC1 [[13]aneN4]
log Ka for Cu^2+ [6]: 24.41

c1cc(CN2CCCNCCNCCCNCC2)ccc1CN1CCCNCCNCCCNCC1 [AMD3100, 1,1′-[1,4-phenylenebis(methylene)]-bis-1,4,8,11-tetraazacyclotetradecane octahydrochloride dehydrate, reference compound]
antiviral activity (in words) (HIV-1 X4 strain (NL4-3); pNL4.3 strain, TZM-bl, Figure S10): excellent activity | antiviral activity (in words) (HIV-1 R5 strain (BaL); BaL strain, Figure S10): inactive | concentration preventing replication of T-tropic HIV (in words) (T-tropic HIV): low nanomolar concentrations
